Data from US20020127536A1, “Mitochondrial assay” (priority 2001, published 2002).
“Also recorded” adds a separate entry of the source.

Tests used:
[1] = tested on: ATP synthetase; assay: Polarographic assay of ADP-stimulated coupled versus uncoupled respiration: inhibition of ATP synthetase; format: biochemical; conditions: 500 μM drug; isolated rat liver mitochondria; qualitative
Procedure: (§1) When coupling is intact, basal respiration will be stimulated by the addition of ADP to invoke ATP synthesis, as electron transport is stepped up to replace the H^+ gradient that is used by the ATP synthetase enzyme. If the drug inhibits this coupled respiration rate, the inhibition could be due either to inhibition of the ATP synthetase itself or to inhibition of the electron transport rate that supports the ATP synthesis. To detect which is inhibited, the drug is also tested for inhibition of maximal electron transport rates in the presence of a known uncoupler. Inhibition of the coupled, but not the uncoupled respiration rate pinpoints the inhibition to the ATP synthetase or to one of the supporting transport processes such as the phosphate or ADP/ATP transporters.
as §1, with “The third test examines whether the drug inhibits ATP synthetase. When” for “When”, “the difference,” for “which is inhibited,”, “uncoupler, as in the first test described supra.” for “uncoupler.”, “coupled” for “coupled,”, “as” for “as the”
When coupling is intact, basal respiration is stimulated by the addition of ADP which stimulates ATP synthesis, as electron transport is stepped up to re-establish the H^+ gradient that is used by the ATP synthetase enzyme. If the drug inhibits this coupled respiration rate, the inhibition could be due either to inhibition of the ATP synthetase itself or to inhibition of the electron transport rate that supports the ATP synthesis. Haloperidol, quetiapine, risperidone, and clozapine were tested for inhibition of maximal electron transport rates in the presence and absence of a known uncoupler (FIG. 4). Inhibition of the coupled, but not the uncoupled respiration rate pinpoints the inhibition to the ATP synthetase or to one of the supporting transport processes such as phosphate or ADP/ATP transporters.

[2] = tested on: respiratory complex II; assay: Polarographic assay of uncoupled (2,4-dinitrophenol) maximal respiration with succinate: inhibition of electron transport at site II; format: biochemical; conditions: 500 μM drug, isolated rat liver mitochondria, qualitative
[3] = tested on: electron transport chain; assay: Polarographic assay of maximal electron transport rate (oxygen consumption), overall inhibition; format: biochemical; conditions: rat liver mitochondria, maximal rate of oxygen consumption with 2,4-dinitrophenol
Procedure: A known uncoupler (2,4-dinitrophenol) was added in the presence of an oxidizable substrate to elicit maximal electron transport rates, measured as the maximal rate of oxygen consumption; a slower rate in the presence of the drug indicates inhibition somewhere in the electron transport chain.
A known uncoupler of oxidative phosphorylation (e.g., 2,4-dinitrophenol) is added to the preparation to elicit maximal electron transport rates, measured as the rate of oxygen consumption. A slower rate in the presence of the drug indicates inhibition somewhere along the electron transport chain. The test is performed with different substrates that donate electrons at either respiratory complex I (glutamate and malate) or at complex II (succinate) or via electron-transferring flavoprotein (ETF) to gain information about site-specific inhibition.
(§2) Mitochondrial respiration is measured polarographically using a Clark oxygen electrode. To test for drug effect, an appropriate concentration of drug is introduced at the beginning of the assay, prior to the addition of substrate. The test substance (e.g., drug) is thus present continuously in the assays as the basal, coupled and uncoupled rates are successively determined. The solvent in which the drug is dissolved is tested alone as the control.
(§3) Rates were measured as the rate of oxygen consumption. A slower rate in the presence of the drug indicates inhibition somewhere in the electron transport chain. The tests were performed with different substrates that donate electrons at either respiratory complex I (glutamate+malate) or at complex II (succinate) to gain information about site-specific inhibition.

[4] = tested on: respiratory complex I; conditions: glutamate+malate; for El. Transport Site I: 500 μM drug, isolated rat liver mitochondria, qualitative; for Inhibition of electron transport at respiratory complex I (in words): rat liver mitochondria, 2,4-dinitrophenol added, preliminary data
Procedure: A known uncoupler (2,4-dinitrophenol) was added in the presence of an oxidizable substrate to elicit maximal electron transport rates, measured as the maximal rate of oxygen consumption; a slower rate in the presence of the drug indicates inhibition somewhere in the electron transport chain. The assay is performed with different substrates that donate electrons at either respiratory complex I (glutamate+malate) or at complex II (succinate) or through electron-transferring flavoprotein (ETF) (not shown) to gain information about site-specific inhibition.
This first test answers the questions of whether the compound under study inhibits electron transport, and if so, whether inhibition involves specific respiratory enzyme complexes in the electron transport chain. A known uncoupler of oxidative phosphorylation (e.g., 2,4-dinitrophenol) is added to the preparation to elicit maximal electron transport rates, measured as the rate of oxygen consumption. A slower rate in the presence of the drug indicates inhibition somewhere along the electron transport chain. The test is performed with different substrates that donate electrons at either respiratory complex I (glutamate and malate) or at complex II (succinate) or via electron-transferring flavoprotein (ETF) to gain information about site-specific inhibition.
as §2
Stimulation of basal respiration by the drug indicates uncoupling. If inhibition of the coupled rate is observed, this could be due to inhibition of ATP synthetase function, or to inhibition of electron transport. If the addition of uncoupler fails to relieve the inhibition, then the drug is inhibiting electron transport; and if the addition of uncoupler relieves the inhibition, then the drug is inhibiting ATP synthetase function.
Information about site specific electron transport inhibition can be obtained with this assay by using substrates that donate electrons to the respiratory chain at different branch sites. For example, by separately including either succinate which donates to complex II or glutamate+malate which donates electrons to complex I, or other organic acids which donate through electron-transferring flavoprotein (ETF).
as §3

[5] = tested on: isolated rat liver mitochondria; assay: Polarographic assay of basal respiration: uncoupling action; format: biochemical; conditions: for Uncoupling: 500 μM drug, isolated rat liver mitochondria, qualitative; for Uncoupling action (in words): drug added to rat liver mitochondria respiring in the basal state
Description: Normally electron transport proceeds at a slow basal rate in the presence of an oxidizable substrate unless the H^+ gradient is dissipated by a need for ATP synthesis. However, if the H^+ gradient is dissipated by the addition of a chemical that alters membrane permeability to H^+, respiration will be stimulated unproductively, that is, without concomitant ATP synthesis, so that energy is wasted. […] If respiration (oxygen consumption) is stimulated, uncoupling is inferred.
The second test determines whether the drug uncouples electron transport from ATP synthesis. Normally, in these preparations, electron transport will proceed at a slow basal rate in the presence of an oxidizable substrate, unless the H^+ gradient is dissipated by a need for ATP synthesis. However, if the H^+ gradient is dissipated by the addition of a drug that alters membrane permeability to H^+, respiration will be stimulated unproductively (i.e., without concomitant ATP synthesis) so that energy is wasted. […] If respiration (e.g., oxygen consumption) is stimulated, uncoupling is inferred.
Normally electron transport proceeds at a slow basal rate in the presence of an oxidizable substrate unless the H^+ gradient is dissipated by a need for ATP synthesis. However, if the H^+ gradient is dissipated by the addition of a drug that alters membrane permeability to H^+ , respiration will be stimulated unproductively without concomitant ATP synthesis so that energy is wasted. Haloperidol, quetiapine, risperidone, and clozapine were added to mitochondria respiring in the basal state (FIG. 3). If respiration (i e., oxygen consumption) is stimulated, uncoupling is inferred.

[6] = tested on: mitochondrial respiratory complex I; conditions: literature statement; cited from earlier work

| SMILES | ATP Synthesis [1] | El. Transport Site II [2] | Inhibition of electron transport, overall (in words) [3] | El. Transport Site I [4] | Uncoupling [5] | Uncoupling action (in words) [5] | Inhibition of mitochondrial complex I (in words) [6] | Inhibition of electron transport at respiratory complex I (in words) [4] | Stimulation of basal respiration ([5]; known uncoupler, rat liver mitochondria in basal state with oxidizable substrate) | Inhibition of electron transport, overall (in words) ([3]; listed as thioridazine) |
| --- | --- | --- | --- | --- | --- | --- | --- | --- | --- | --- |
| Cc1nc2n(c(=O)c1CCN1CCC(c3noc4cc(F)ccc34)CC1)CCCC2 [Risperidone] | − | + | inhibited electron transport markedly but not specifically at either complex I or II; also recorded: potent inhibitors of electron transport | +++ | ++ | more potent than clozapine |  |  |  |  |
| C[n+]1ccc(-c2ccccc2)cc1 [MPP^+, 1-methyl-4-phenylpyridinium] |  |  |  |  |  |  | potent and specific inhibitor of mitochondrial respiratory complex I |  |  |  |
| OCCOCCN1CCN(C2=Nc3ccccc3Sc3ccccc32)CC1 [Quetiapine] | − | − | very mild effects | + | + | more potent than clozapine |  | had a slight effect and was also specific for complex I |  |  |
| CN(C)CCCN1c2ccccc2Sc2ccc(Cl)cc21 [Chlorpromazine] | − | + | potent inhibitors of electron transport | +++ | ++ | more potent than clozapine |  | inhibited electron transport specifically at respiratory complex I |  |  |
| O=C(CCCN1CCC(O)(c2ccc(Cl)cc2)CC1)c1ccc(F)cc1 [Haloperidol] | − | − | potent inhibitors of electron transport | ++ | − |  |  | inhibited electron transport specifically at respiratory complex I |  |  |
| O=C(CCC[n+]1ccc(-c2ccc(Cl)cc2)cc1)c1ccc(F)cc1 [HPP^+] |  |  |  |  |  |  | potent inhibitor of mitochondrial complex I |  |  |  |
| O=[N+]([O-])c1ccc(O)c([N+](=O)[O-])c1 [2,4-dinitrophenol] |  |  |  |  |  |  |  |  | 6-10 fold |  |
| CSc1ccc2c(c1)N(CCC1CCCCN1C)c1ccccc1S2 (stereo not drawn) [Thioridazine] | − | + | inhibited electron transport markedly but not specifically at either complex I or II | +++ | ++ | more potent than clozapine |  |  |  | potent inhibitors of electron transport |
